# From patent US20060128744A1, “Use of 5-HT6 agonist for the treatment and prevention of neurodegenerative disorders” (Wyeth, priority 2004, published 2006)
# What was measured:
# [1] = system: neuron cultures from E16 rat embryos; settings: 72 h
# Experimental: In this evaluation neuron cultures are prepared from E16 rat embryos. […] After a 72 h period, neuronal survival is determined by a neurofilament ELISA.
# The data are expressed as total neurofilament content.
# [2] = system: cortical neuron cultures from E16 rat embryos; settings: 72 h
# Experimental: In this evaluation cortical neuron cultures are prepared from E16 rat embryos. […] Neurite outgrowth is determined after a 72 h period by staining cells with a tubulin antibody (TUJ-1) and measuring neurite length with the Cellomics ArrayScan, using the Enhanced Neurite Outgrowth (ENO) algorithm. The data are expressed as total neurite length.
# [3] = system: brain derived neurotrophic factor (BDNF) protein in cortical neuron cultures; assay: BDNF protein levels in cultured cortical neurons, sandwich ELISA; assay type: cell-based, rat; settings: 72 h in culture
# Experimental: In this evaluation cortical neuron cultures are prepared from E16 rat embryos and plated on pre-coated 10 cm Petri dishes. […] Levels of brain derived neurotrophic factor (BDNF) protein were measured after a 72 h period by lysing the cells and using a BDNF sandwich ELISA. More specifically, ELISA plates were coated with an anti-BDNF monoclonal antibody. Nonspecific binding was blocked and 50 μg of sample protein was added. A second anti-BDNF antibody was added and incubated. An anti-IgY antibody conjugated with horseradish peroxidase was added and incubated. A TMB solution was added and the colorimetric reaction was measured in a plate reader (absorbance of 450 nm). BDNF levels are quantified after 72 h in culture.
# [4] = system: cerebellar granule neurons; assay: Potassium withdrawal-induced apoptosis in cerebellar granule neurons, DNA fragmentation ELISA; assay type: cell-based, rat; settings: 5 mM K+, 24 h
# Experimental: (§1) Cerebella isolated from P7 rat pup brains are cut into 1 mm pieces and transferred to a tube containing 0.3 mg/ml trypsin in HBSS. Following enzymatic digestion, the tissue is mechanically triturated. The supernatant is collected and centrifuged at 1200 rpm for 10 minutes. The resultant pellet is resuspended in complete media (Neurobasal, […], 0.5 mM L-glutamine, 100 U/ml penicillin, 100 μg/ml streptomycin, 10% FBS) and plated at a density of 0.5×10^6 cells/well in 24-well plates. After 24 h, media is exchanged with complete serum-free medial (Neurobasal, […], 0.5 mM L-glutamine, 100 U/ml penicillin, 100 μg/ml streptomycin, B-27 supplement).
# Potassium withdrawal, i.e. replacement of […] in the CGN culture medium is a well established model of neuronal cell death by apoptosis (T. M. Miller and E. M. Johnson, Journal of Neuroscience, (1996) 16(23), pp7487-7495). Cultures are maintained for 7 days prior to experimentation. Complete media containing 25 mM K^+ is exchanged with complete media containing 5 mM K^+. […] After 24 h, apoptotic cell death is determined by measuring DNA fragmentation via ELISA. Apoptotic cell death is expressed as % apoptosis.
# [5] = system: cerebellar granule neurons; assay: Oxygen glucose deprivation (OGD) in cerebellar granule neurons, LDH release; assay type: cell-based, rat; settings: 4 h OGD, 24 h recovery
# Experimental: as §1
# This is a well characterized model of ischemia-like neuronal injury involving glutamate-induced excitotoxicity (A. Kaasik, et al, Neuroscience (2001) 102, pp427-432). Cultures are maintained for 14 days in vitro prior to experimentation. […] Following the 4 h OGD, deoxygenated buffer is exchanged with complete media. […] At the end of the 24-h period, cell death is determined by measuring lactate dehydrogenase (LDH) released into the media and is expressed as a percent of cell death. The results are shown in FIG. 3 and are presented as means±SD from 5 experiments. Sham bar represents results obtained with cultures subjected to manipulations and changes of culture media without OGD or drug treatment.
# [6] = target: T1, human cloned 5-HT6 receptors (Homo sapiens, UniProt P50406); assay: 5-HT6 binding affinity, [3H]-LSD displacement in membranes of Hela cells
# T1 construct: expressed in transfected cells; host or cells: HeLa cells (membrane preparation)
# Experimental: The affinity of test compounds for the serotonin 5-HT6 receptor is evaluated in the following manner. Cultured Hela cells expressing human cloned 5-HT6 receptors are harvested and centrifuged at low speed (1,000×g) for 10.0 min to remove the culture media. The harvested cells are suspended in half volume of fresh physiological phosphate buffered saline solution and recentrifuged at the same speed. This operation is repeated. The collected cells are then homogenized in ten volumes of 50 mM Tris.HCl (pH 7.4) and 0.5 mM EDTA. The homogenate is centrifuged at 40,000×g for 30.0 min and the precipitate is collected. The obtained pellet is resuspended in 10 volumes of Tris.HCl buffer and recentrifuged at the same speed. The final pellet is suspended in a small volume of Tris.HCl buffer and the tissue protein content is determined in aliquots of 10-25 μl volumes. […] The volume of the suspended cell membranes is adjusted to give a tissue protein concentration of 1.0 mg/ml of suspension. […]
# The bound complex caught on the filter disk is allowed to air dry and the radioactivity is measured in a Packard TopCount® equipped with six photomultiplier detectors, after the addition of 40.0 μl Microscint®-20 scintillant to each shallow well.
# Binding in the presence of varying concentrations of test compound is expressed as a percentage of specific binding in the absence of test compound. […]
# [7] = target: T2, human 5-HT6 receptor stabily transfected into HELA cells (Homo sapiens, UniProt P50406); assay: 5-HT6 agonist activity using cAMP accumulation; assay type: cell-based
# T2 construct: expressed in transfected cells; host or cells: HeLa cells, stably transfected
# Experimental: Upon initiation of the assay, the media from cell maintenance is aspirated and cells are preincubated at 37° C. for 15 mins. in KREBS buffer. Following this primary incubation, the buffer is aspirated and an additional incubation is performed at 37° C. for 5 mins. in KREBS buffer containing 500 uM IBMX (3-isobutyl-1-methylxanthine). […] The assay is terminated by the addition of 0.5M perchloric acid. […] Data are analyzed graphically with GraphPad Prism (GraphPad Software, San Diego, Calif.).
# T2 sequence (P50406 whole entry): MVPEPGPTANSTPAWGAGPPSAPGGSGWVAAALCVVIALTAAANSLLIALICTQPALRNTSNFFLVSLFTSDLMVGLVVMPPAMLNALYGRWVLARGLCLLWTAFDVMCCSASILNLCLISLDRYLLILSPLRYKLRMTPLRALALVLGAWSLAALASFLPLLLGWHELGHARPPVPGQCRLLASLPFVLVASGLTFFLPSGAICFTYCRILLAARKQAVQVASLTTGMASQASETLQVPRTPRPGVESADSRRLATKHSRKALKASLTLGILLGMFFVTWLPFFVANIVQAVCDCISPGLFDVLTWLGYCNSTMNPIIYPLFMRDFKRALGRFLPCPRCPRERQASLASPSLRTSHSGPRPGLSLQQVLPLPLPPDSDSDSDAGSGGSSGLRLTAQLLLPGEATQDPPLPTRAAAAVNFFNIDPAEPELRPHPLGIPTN
# T1 sequence (P50406 whole entry): as above
compound,measurement,setting,value
"CN(C)CCn1cc(S(=O)(=O)c2cccc(F)c2)c2cccnc21 [Test Compound B, N-(2-{3-[(3-fluorophenyl)sulfonyl]-1H-pyrrolo[2,3-b]pyridin-1-yl}ethyl)-N,N-dimethylamine]",neurofilament content compared to vehicle treated controls,[1],increases the neurofilament content
same,total neurite length compared to vehicle treated controls,[2],increased total neurite length
same,BDNF protein levels compared to vehicle treated control,[3],significantly increased BDNF protein levels
NCCc1cn(S(=O)(=O)c2c(Cl)nc3sccn23)c2ccccc12 [Test Compound C],reduction of apoptotic cell death,[4]; 0.3 μM,50%
same,protection from apoptosis,[4]; 3.0 μM,almost total protection from apoptosis
same,effect on amount of fragmented DNA (measure of apoptosis),[4],"significantly, and dose dependently, attenuated"
same,reduction of neuronal death,[5]; 1 μM,50%
same,effect on OGD-induced neuronal cell death,[5]; 1 h pretreatment,dose-dependent reduction of neuronal cell death
same,lowest concentration providing significant protection against OGD-induced cell death,[5]; LDH release,10 nM
"COc1ccc(OC)c(S(=O)(=O)c2cn(CCN)c3ncccc23)c1 [Test Compound A, (2-{3-[(2,5-dimethoxyphenyl)sulfonyl]-1H-pyrrolo[2,3-b]pyridin-1-yl}ethyl)amine]",Ki,[6],3.6 nM
same,Emax,[7],95%
